Measurements published in patent US11919897B2, “Inhibitors of human immunodeficiency virus replication” (VIIV HEALTHCARE UK (No. 5) LIMITED, priority 2018, dated 2024).

What was measured:
[1] = Compound cytotoxicity, XTT-based colorimetric assay; format: cell-based; settings: human; uninfected MT2 cells, day 4, XTT assay
Experimental: Compound cytotoxicity and the corresponding CC50 values were determined using the same protocol as described in the antiviral assay except that uninfected cells were used. Cytotoxicity was assessed on day 4 in uninfected MT2 cells by using an XTT (2,3-bis[2-Methoxy-4-nitro-5-sulfophenyl]-2H-tetrazolium-5-carboxyanilide inner salt)-based colorimetric assay (Sigma-Aldrich, St Louis, Mo.).

[2] = test system: recombinant NL4-3 virus (nef section replaced with Renilla luciferase gene) in MT-2 cells; assay: HIV cell culture assay (antiviral activity, luciferase readout in infected MT-2 cells); format: cell-based; settings: Renilla, NL43
Experimental: HIV cell culture assay-MT-2 cells, 293T cells and the proviral DNA clone of NL4-3 virus were obtained from the NIH AIDS Research and Reference Reagent Program. MT-2 cells were propagated in RPMI 1640 media supplemented with 10% heat inactivated fetal bovine serum (FBS), 100 μg/ml penicillin G and up to 100 units/mL streptomycin. The 293T cells were propagated in DMEM media supplemented with 10% heat inactivated FBS, 100 μg/mL penicillin G and 100 μg/mL streptomycin. A recombinant NL4-3 proviral clone, in which a section of the nef gene was replaced with the Renilla luciferase gene, was used to make the reference virus used in these studies. The recombinant virus was prepared through transfection of the recombinant NL4-3 proviral clone into 293T cells using Transit-293 Transfection Reagent from Minis Bio LLC (Madison, WI). Supernatent was harvested after 2-3 days and the amount of virus present was titered in MT-2 cells using luciferase enzyme activity as a marker by measuring luciferase enzyme activity. Luciferase was quantitated using the EnduRen Live Cell Substrate from Promega (Madison, WI). Antiviral activities of compounds toward the recombinant virus were quantified by measuring luciferase activity in MT-2 cells infected for 4-5 days with the recombinant virus in the presence of serial dilutions of the compound.
The 50% effective concentration (EC50) was calculated by using the exponential form of the median effect equation where (Fa)=1/[1+(ED50/drug conc.)m] (Johnson V A, Byington R T. Infectivity Assay. In Techniques in HIV Research. ed. Aldovini A, Walker B D. 71-76. New York: Stockton Press. 1990).

SMILES | CC50 at 4 days [1] [nM] | EC50 [2] [nM]
C[C@@H](Oc1ccc2c(=O)n(-c3ccc(Cl)c4c(NS(C)(=O)=O)nn(C)c34)c([C@H](Cc3cc(F)cc(F)c3)NC(=O)Cn3nc(C(F)F)c4c3C(F)(F)[C@@H]3C[C@H]43)nc2n1)C1CCCC1 (atropisomer, axis not shown; (P)) [Example 16, N—((S)-1-((3P)-3-(4-chloro-1-methyl-3-(methylsulfonamido)-1H-indazol-7-yl)-7-((R)-1-cyclopentylethoxy)-4-oxo-3,4-dihydropyrido[2,3-d]pyrimidin-2-yl)-2-(3,5-difluorophenyl)ethyl)-2-((3bS,4aR)-3-(difluoromethyl)-5,5-difluoro-3b,4,4a,5-tetrahydro-1H-cyclopropa[3,4]cyclopenta[1,2-c]pyrazol-1-yl)acetamide] | > 500 | 0.22
Cn1nc(NS(C)(=O)=O)c2c(Cl)ccc(-n3c([C@H](Cc4cc(F)cc(F)c4)NC(=O)Cn4nc(C(F)F)c5c4C(F)(F)[C@@H]4C[C@H]54)nc4nc(O)ccc4c3=O)c21 (atropisomer, axis not shown; (P)) [Example 1, N—((S)-1-((3P)-3-(4-chloro-1-methyl-3-(methylsulfonamido)-1H-indazol-7-yl)-7-hydroxy-4-oxo-3,4-dihydropyrido[2,3-d]pyrimidin-2-yl)-2-(3,5-difluorophenyl)ethyl)-2-((3bS,4aR)-3-(difluoromethyl)-5,5-difluoro-3b,4,4a,5-tetrahydro-1H-cyclopropa[3,4]cyclopenta[1,2-c]pyrazol-1-yl)acetamide] | > 1000 | 2.7
Cn1nc(NS(C)(=O)=O)c2c(Cl)ccc(-n3c([C@H](Cc4cc(F)cc(F)c4)NC(=O)Cn4nc(C(F)F)c5c4C(F)(F)[C@@H]4C[C@H]54)nc4nc(OCCOC5CC5)ccc4c3=O)c21 (atropisomer, axis not shown; (P)) [Example 29, N—((S)-1-((3P)-3-(4-chloro-1-methyl-3-(methylsulfonamido)-1H-indazol-7-yl)-7-(2-cyclopropoxyethoxy)-4-oxo-3,4-dihydropyrido[2,3-d]pyrimidin-2-yl)-2-(3,5-difluorophenyl)ethyl)-2-((3bS,4aR)-3-(difluoromethyl)-5,5-difluoro-3b,4,4a,5-tetrahydro-1H-cyclopropa[3,4]cyclopenta[1,2-c]pyrazol-1-yl)acetamide] | > 100 | 0.034
C[C@H](Oc1ccc2c(=O)n(-c3ccc(Cl)c4c(NS(C)(=O)=O)nn(C)c34)c([C@H](Cc3cc(F)cc(F)c3)NC(=O)Cn3nc(C(F)F)c4c3C(F)(F)[C@@H]3C[C@H]43)nc2n1)C1CCCC1 (atropisomer, axis not shown; (P)) [Example 23, N—((S)-1-((3P)-3-(4-chloro-1-methyl-3-(methylsulfonamido)-1H-indazol-7-yl)-7-((S)-1-cyclopentylethoxy)-4-oxo-3,4-dihydropyrido[2,3-d]pyrimidin-2-yl)-2-(3,5-difluorophenyl)ethyl)-2-((3bS,4aR)-3-(difluoromethyl)-5,5-difluoro-3b,4,4a,5-tetrahydro-1H-cyclopropa[3,4]cyclopenta[1,2-c]pyrazol-1-yl)acetamide] | > 500 | 0.17
CC(C)COCCOc1ccc2c(=O)n(-c3ccc(Cl)c4c(NS(C)(=O)=O)nn(C)c34)c([C@H](Cc3cc(F)cc(F)c3)NC(=O)Cn3nc(C(F)F)c4c3C(F)(F)[C@@H]3C[C@H]43)nc2n1 (atropisomer, axis not shown; (P)) [Example 25, N—((S)-1-((3P)-3-(4-chloro-1-methyl-3-(methylsulfonamido)-1H-indazol-7-yl)-7-(2-isobutoxyethoxy)-4-oxo-3,4-dihydropyrido[2,3-d]pyrimidin-2-yl)-2-(3,5-difluorophenyl)ethyl)-2-((3bS,4aR)-3-(difluoromethyl)-5,5-difluoro-3b,4,4a,5-tetrahydro-1H-cyclopropa[3,4]cyclopenta[1,2-c]pyrazol-1-yl)acetamide] | > 100 | 0.054
Cn1nc(NS(C)(=O)=O)c2c(Cl)ccc(-n3c([C@H](Cc4cc(F)cc(F)c4)NC(=O)Cn4nc(C(F)F)c5c4C(F)(F)[C@@H]4C[C@H]54)nc4nc(OCCC5CC5)ccc4c3=O)c21 (atropisomer, axis not shown; (P)) [Example 24, N—((S)-1-((3P)-3-(4-chloro-1-methyl-3-(methylsulfonamido)-1H-indazol-7-yl)-7-(2-cyclopropylethoxy)-4-oxo-3,4-dihydropyrido[2,3-d]pyrimidin-2-yl)-2-(3,5-difluorophenyl)ethyl)-2-((3bS,4aR)-3-(difluoromethyl)-5,5-difluoro-3b,4,4a,5-tetrahydro-1H-cyclopropa[3,4]cyclopenta[1,2-c]pyrazol-1-yl)acetamide] | > 500 | 0.051
Cn1nc(NS(C)(=O)=O)c2c(Cl)ccc(-n3c([C@H](Cc4cc(F)cc(F)c4)NC(=O)Cn4nc(C(F)F)c5c4C(F)(F)[C@@H]4C[C@H]54)nc4nc(OCc5ccccn5)ccc4c3=O)c21 (atropisomer, axis not shown; (P)) [Example 30, N—((S)-1-((3P)-3-(4-chloro-1-methyl-3-(methylsulfonamido)-1H-indazol-7-yl)-4-oxo-7-(pyridin-2-ylmethoxy)-3,4-dihydropyrido[2,3-d]pyrimidin-2-yl)-2-(3,5-difluorophenyl)ethyl)-2-((3bS,4aR)-3-(difluoromethyl)-5,5-difluoro-3b,4,4a,5-tetrahydro-1H-cyclopropa[3,4]cyclopenta[1,2-c]pyrazol-1-yl)acetamide] | > 100 | 0.043
Cn1nc(NS(C)(=O)=O)c2c(Cl)ccc(-n3c([C@H](Cc4cc(F)cc(F)c4)NC(=O)Cn4nc(C(F)F)c5c4C(F)(F)[C@@H]4C[C@H]54)nc4nc(OCCN5CCS(=O)(=O)CC5)ccc4c3=O)c21 (atropisomer, axis not shown; (P)) [Example 7, N—((S)-1-((3P)-3-(4-chloro-1-methyl-3-(methylsulfonamido)-1H-indazol-7-yl)-7-(2-(1,1-dioxidothiomorpholino)ethoxy)-4-oxo-3,4-dihydropyrido[2,3-d]pyrimidin-2-yl)-2-(3,5-difluorophenyl)ethyl)-2-((3bS,4aR)-3-(difluoromethyl)-5,5-difluoro-3b,4,4a,5-tetrahydro-1H-cyclopropa[3,4]cyclopenta[1,2-c]pyrazol-1-yl)acetamide] | > 1000 | 0.26
Cn1nc(NS(C)(=O)=O)c2c(Cl)ccc(-n3c([C@H](Cc4cc(F)cc(F)c4)NC(=O)Cn4nc(C(F)F)c5c4C(F)(F)[C@@H]4C[C@H]54)nc4nc(OCC5CCCC5)ccc4c3=O)c21 (atropisomer, axis not shown; (P)) [Example 2, N—((S)-1-((3P)-3-(4-chloro-1-methyl-3-(methylsulfonamido)-1H-indazol-7-yl)-7-(cyclopentylmethoxy)-4-oxo-3,4-dihydropyrido[2,3-d]pyrimidin-2-yl)-2-(3,5-difluorophenyl)ethyl)-2-((3bS,4aR)-3-(difluoromethyl)-5,5-difluoro-3b,4,4a,5-tetrahydro-1H-cyclopropa[3,4]cyclopenta[1,2-c]pyrazol-1-yl)acetamide] | > 1000 | 0.06
